Measurements as given in US8435549B2, “Halogen alkoxy spirocyclic tetramic and tetronic acid derivatives” (Bayer Cropscience AG, priority 2007, dated 2013).
One block for each molecule: values may come before it.

Tests used:
[1] = system: green peach aphid (Myzus persicae); assay: Enhancement of activity by ammonium/phosphonium salts, Myzus persicae test; assay type: in vivo; conditions: Myzus persicae on bell pepper, active compound 4 ppm
Procedure: To produce a suitable preparation of active compound, 1 part by weight of active compound is mixed with the stated amounts of solvent and emulsifier, and the concentrate is diluted with water to the desired concentration. For application with ammonium or phosphonium salts, these are added to the spray liquor in a concentration of 1000 ppm.
Bell pepper plants (Capsicum annuum) which are heavily infested by the green peach aphid (Myzus persicae) are treated by spraying to runoff point with the active compound preparation of the desired concentration. After the desired period of time, the kill in % is determined. 100% means that all animals have been killed; 0% means that none of the animals have been killed.

[2] = Determination of the log P values (LC/MS, HCOOH method); assay type: physicochemical; conditions: for log P: HPLC reversed-phase C18, HCOOH method; for chromatographic logP: reversed-phase C18 HPLC column, acidic range (pH 3.4)
Procedure: Determination of the Log P Values (LC/MS, HCOOH Method):
The log P values given in the tables were determined in accordance with EEC Directive 79/831 Annex V.A8 by HPLC (High Performance Liquid Chromatography) using a reversed-phase column (C 18). Temperature: 55° C.
Mobile phases for determination in the acidic range (pH 3.4):
Mobile phase A: acetonitrile+1 ml formic acid/liter. Mobile phase B: water+0.9 ml formic acid/liter. Gradient: from 10% mobile phase A/90% mobile phase B to 95% mobile phase A/5% mobile phase B over 4.25 min. Calibration was carried out using unbranched alkan-2-ones (having 3 to 16 carbon atoms) with known log P values (determination of the log P values by the retention times using linear interpolation between two successive alkanones). The lambda max values were determined in the maxima of the chromatographic signals using the UV spectra from 200 nm to 400 nm.

[3] = system: cotton aphid (Aphis gossypii); assay: Enhancement of activity by ammonium/phosphonium salts in combination with penetrants, Aphis gossypii test; assay type: in vivo
Procedure: To produce a suitable preparation of active compound, 1 part by weight of active compound is mixed with the stated amounts of solvent and emulsifier, and the concentrate is diluted with emulsifier-containing water to the desired concentration. For application with ammonium or phosphonium salts and penetrants (rapeseed oil methyl esters 500 EW) these are added to the spray liquor in each case in a concentration of 1000 ppm.
Cotton plants (Gossypium hirsutum) which are heavily infested by the cotton aphid (Aphis gossypii) are treated by spraying to runoff point with the active compound preparation of the desired concentration.
After the desired period of time, the kill in % is determined. 100% means that all the aphids have been killed; 0% means that none of the aphids have been killed.

[4] = system: crop plants; assay: Use of safeners: plant compatibility of test substances in crop plants; assay type: in vivo
Procedure: • Seeds of monocotyledonous and dicotyledonous weed and crop plants are placed in sandy loam in wood fiber pots, covered with soil and cultivated in a greenhouse under good growth conditions. 2 to 3 weeks after sowing, the test plants are treated at the one-leaf stage. The test compounds, formulated as wettable powders (WP) are then, with a water application rate of 600 l/ha (converted), with 0.2% of wetting agent added, sprayed at various dosages onto the green parts of the plants. After the test plants have been kept in the greenhouse under optimum growth conditions for about 3 weeks, the activity of the preparations is rated visually in comparison to untreated controls (herbicidal activity in percent: 100% activity=the plants have died, 0% activity=like control plants). • In addition to the compounds mentioned above, the following compounds show a post-emergence action of ≧80% against Echinocloa crus-galli, Lolium multiflorum and Setaria viridis at 80 g/ha: I-1-a-2, I-1-a-4, I-1-a-5, I-1-a-7, I-1-a-9, I-1-a-12, I-1-a-13, I-1-a-14, I-1-b-3.
Use of Safeners: • If it is additionally to be tested as to whether safeners can improve the plant compatibility of test substances in the case of crop plants, the following options are used for applying the safeners: • seeds of the crop plants are, before sowing, dressed with the safener substance (the amount of safener stated in percent, based on the weight of the seed) • before application of the test substances, the crop plants are sprayed with the safener at a certain application rate per hectare (usually 1 day before the application of the test substances) • the safener is applied together with the test substance as a tank mix (the amount of safener stated in g/ha or as a ratio, based on the herbicide).
• Application of the safener 1 day prior to the herbicide

[5] = α isomer of the α + β mixture, 55° C.
[6] = β isomer of the α + β mixture, 55° C.
[7] = compounds of formula (I-2-b), single isomer as labelled
[8] = single isomer isolated by preparative HPLC (formula I-2-a)

SMILES: Cc1cc(C)c(C2=C(O)C3(CCC(OCC(F)(F)F)CC3)NC2=O)c(C)c1 (mixture of isomers) [Example I-1-a-5]
Kill rate/% after 6 days ([1]; +AS (1000 ppm)): 99%
Kill rate/% after 6 days ([1]; without AS): 5%

log P [2, 5]: α 3.10
log P [2, 6]: β 2.95
SMILES: Cc1ccc(C)c(C2=C(O)C3(CCC(OCC(F)(F)F)CC3)OC2=O)c1 (mixture of isomers) [Example I-2-a-2]

SMILES: Cc1cc(C)c(C2=C(O)C3(CCC(OCC(F)(F)F)CC3)OC2=O)c(C)c1 (mixture of isomers) [Example I-2-a-3]
log P [2, 5]: α 3.31
log P [2, 6]: β 3.18

log P [2, 5]: α 3.34
log P [2, 6]: β 3.20
SMILES: Cc1cc(C)c(C2=C(O)C3(CCC(OCC(F)(F)F)CC3)OC2=O)cc1C (mixture of isomers) [Example I-2-a-4]

log P [2, 5]: α 3.54
log P [2, 6]: β 3.41
SMILES: CCc1cc(C)cc(C)c1C1=C(O)C2(CCC(OCC(F)(F)F)CC2)OC1=O (mixture of isomers) [Example I-2-a-5]

SMILES: Cc1ccc(-c2ccc(Cl)cc2)c(C)c1C1=C(O)C2(CCC(OCC(F)(F)F)CC2)OC1=O (mixture of isomers) [Example I-2-a-6]
log P [2, 5]: α 4.29
log P [2, 6]: β 4.13

SMILES: Cc1cc(Cl)cc(C)c1C1=C(O)C2(CCC(OCC(F)(F)F)CC2)OC1=O (mixture of isomers) [Example I-2-a-8]
log P [2, 5]: 3.39
log P [2, 6]: 3.25

SMILES: COc1cc(C)cc(C)c1C1=C(O)C2(CCC(OCC(F)(F)F)CC2)OC1=O (mixture of isomers) [Example I-2-a-11]
log P [2, 5]: α 3.07
log P [2, 6]: β 2.94

SMILES: CCc1cc(-c2ccc(Cl)cc2)cc(C)c1C1=C(O)C2(CCC(OCC(F)(F)F)CC2)OC1=O (mixture of isomers) [Example I-2-a-12]
log P [2, 5]: α 4.51
log P [2, 6]: β 4.36

SMILES: Cc1ccc(-c2ccc(F)cc2)c(C)c1C1=C(O)C2(CCC(OCC(F)(F)F)CC2)NC1=O (single isomer, unassigned) [Example I-1-a-3]
Kill rate/% after 6 days ([3]; 4 ppm, +AS (1000 ppm)): 0%
Kill rate/% after 6 days ([3]; 4 ppm, +RME (1000 ppm)): 5%
Kill rate/% after 6 days ([3]; 4 ppm, +RME + AS (1000 ppm each)): 25%
Kill rate/% after 6 days ([3]; 4 ppm, no additive): 0%
Kill rate/% after 6 days ([3]; 20 ppm, +AS (1000 ppm)): 5%
Kill rate/% after 6 days ([3]; 20 ppm, +RME (1000 ppm)): 10%
Kill rate/% after 6 days ([3]; 20 ppm, +RME + AS (1000 ppm each)): 90%
Kill rate/% after 6 days ([3]; 20 ppm, no additive): 25%

SMILES: CCc1cc(C)cc(Br)c1C1=C(O)C2(CCC(OCC(F)(F)F)CC2)NC1=O (single isomer, unassigned) [Example I-1-a-7]
10 days after application Summer wheat observed (%) ([4]; 12.5 g a.i./ha): 40%
28 days after application Summer wheat observed (%) ([4]; 12.5 g a.i./ha): 10%
10 days after application Summer wheat observed (%) ([4]; 25 g a.i./ha): 50%
28 days after application Summer wheat observed (%) ([4]; 25 g a.i./ha): 20%
10 days after application Summer wheat observed (%) ([4]; 50 g a.i./ha): 60%
28 days after application Summer wheat observed (%) ([4]; 50 g a.i./ha): 30%
10 days after application Summer wheat observed (%) ([4]; 100 g a.i./ha): 60%
28 days after application Summer wheat observed (%) ([4]; 100 g a.i./ha): 40%

log P [2, 7]: 4.88
SMILES: Cc1ccc(C)c(C2=C(OC(=O)C(C)C)C3(CCC(OCC(F)(F)F)CC3)OC2=O)c1 (single isomer, unassigned) [Example I-2-b-5]

log P [2, 7]: 4.62
SMILES: Cc1ccc(C)c(C2=C(OC(=O)C(C)C)C3(CCC(OCC(F)(F)F)CC3)OC2=O)c1 (single isomer, unassigned) [Example I-2-b-6]

SMILES: Cc1cc(Cl)cc(C)c1C1=C(OC(=O)C(C)C)C2(CCC(OCC(F)(F)F)CC2)OC1=O (single isomer, unassigned) [Example I-2-b-15]
log P [2, 7]: 5.25

SMILES: Cc1cc(Cl)cc(C)c1C1=C(OC(=O)C(C)C)C2(CCC(OCC(F)(F)F)CC2)OC1=O (single isomer, unassigned) [Example I-2-b-16]
log P [2, 7]: 4.97

log P [2, 7]: 6.33
SMILES: CCc1cc(-c2ccc(Cl)cc2)cc(C)c1C1=C(OC(=O)C(C)C)C2(CCC(OCC(F)(F)F)CC2)OC1=O (single isomer, unassigned) [I-2-b-17]

log P [2, 7]: 6.02
SMILES: CCc1cc(-c2ccc(Cl)cc2)cc(C)c1C1=C(OC(=O)C(C)C)C2(CCC(OCC(F)(F)F)CC2)OC1=O (single isomer, unassigned) [I-2-b-18]

log P [2, 7]: 4.72
SMILES: COc1cc(C)cc(C)c1C1=C(OC(=O)C(C)C)C2(CCC(OCC(F)(F)F)CC2)OC1=O (single isomer, unassigned) [I-2-b-19]

log P [2, 7]: 4.48
SMILES: COc1cc(C)cc(C)c1C1=C(OC(=O)C(C)C)C2(CCC(OCC(F)(F)F)CC2)OC1=O (single isomer, unassigned) [I-2-b-20]

chromatographic logP ([2]; pH 3.4, α isomer of the isomer mixture, HPLC): 3.78
chromatographic logP ([2]; pH 3.4, β isomer of the isomer mixture, HPLC): 3.64
SMILES: CCc1cc(C)cc(CC)c1C1=C(O)C2(CCC(OCC(F)(F)F)CC2)OC1=O (stereo not shown) [Example I-2-a-1]

SMILES: Cc1cc(C)c(C2=C(O)C3(CCC(OCC(F)(F)F)CC3)OC2=O)c(C)c1 (stereo not shown) [Example I-2-a-9]
log P [2, 8]: 3.29

SMILES: Cc1cc(C)c(C2=C(O)C3(CCC(OCC(F)(F)F)CC3)OC2=O)c(C)c1 (stereo not shown) [Example I-2-a-10]
log P [2, 8]: 3.16

chromatographic logP ([2]; pH 3.4, HPLC): 5.69
SMILES: CCc1cc(C)cc(CC)c1C1=C(OC(=O)C(C)C)[C@]2(CC[C@H](OCC(F)(F)F)CC2)OC1=O [Example I-2-b-1]

chromatographic logP ([2]; pH 3.4, HPLC): 5.4
SMILES: CCc1cc(C)cc(C)c1C1=C(OC(=O)C(C)C)[C@]2(CC[C@@H](OCC(F)(F)F)CC2)OC1=O [Example I-2-b-2]

SMILES: CCc1cc(C)cc(C)c1C1=C(OC(=O)C(C)C)[C@]2(CC[C@H](OCC(F)(F)F)CC2)OC1=O [Example I-2-b-3]
log P [2, 7]: 5.44

SMILES: CCc1cc(C)cc(C)c1C1=C(OC(=O)C(C)C)C2(CCC(OCC(F)(F)F)CC2)OC1=O (stereo not shown) [Example I-2-b-4]
log P [2, 7]: 5.15

SMILES: Cc1cc(C)c(C2=C(OC(=O)C(C)C)[C@]3(CC[C@H](OCC(F)(F)F)CC3)OC2=O)cc1C [Example I-2-b-7]
log P [2, 7]: 5.14

SMILES: Cc1cc(C)c(C2=C(OC(=O)C(C)C)C3(CCC(OCC(F)(F)F)CC3)OC2=O)cc1C (stereo not shown) [Example I-2-b-8]
log P [2, 7]: 4.87

log P [2, 7]: 5.14
SMILES: Cc1cc(C)c(C2=C(OC(=O)C(C)C)[C@]3(CC[C@H](OCC(F)(F)F)CC3)OC2=O)c(C)c1 [Example I-2-b-9]

SMILES: Cc1cc(C)c(C2=C(OC(=O)C(C)C)C3(CCC(OCC(F)(F)F)CC3)OC2=O)c(C)c1 (stereo not shown) [Example I-2-b-10]
log P [2, 7]: 4.88

SMILES: Cc1ccc(-c2ccc(Cl)cc2)c(C)c1C1=C(OC(=O)C(C)C)[C@]2(CC[C@H](OCC(F)(F)F)CC2)OC1=O [Example I-2-b-11]
log P [2, 7]: 6.11

log P [2, 7]: 5.83
SMILES: Cc1ccc(-c2ccc(Cl)cc2)c(C)c1C1=C(OC(=O)C(C)C)C2(CCC(OCC(F)(F)F)CC2)OC1=O (stereo not shown) [Example I-2-b-12]

SMILES: Cc1ccc(-c2ccc(Cl)cc2)cc1C1=C(OC(=O)C(C)C)[C@]2(CC[C@H](OCC(F)(F)F)CC2)OC1=O [Example I-2-b-13]
log P [2, 7]: 5.84

SMILES: Cc1ccc(-c2ccc(Cl)cc2)cc1C1=C(OC(=O)C(C)C)C2(CCC(OCC(F)(F)F)CC2)OC1=O (stereo not shown) [Example I-2-b-14]
log P [2, 7]: 5.55
